Measured values reported in patent US20090148907A1, “NOVEL FRUCTOFURANOSIDASE ACTIVITY FOR OBTAINING THE PREBIOTIC OLIGOSACCHARIDE 6-KESTOSE” (CONSEJO SUPERIOR DE INVESTIGACIONES CIENTIFICAS, priority 2005, published 2009).

Assays:
[1] = target: T1, Fructofuranosidase activity of the extracellular fraction of S. occidentalis (Schwanniomyces occidentalis, UniProt P24133); assay: Fructofuranosidase activity of the extracellular fraction on different carbohydrates (glucose release, glucose oxidase-peroxidase); type: biochemical; settings: for Fructofuranosidase activity on substrate (in words): extracellular fraction, named sugar used as substrate; for Specific activity: extracellular fraction concentrated (30 kDa filter) and dialysed, activity on the named substrate
T1 construct: the enzyme object of the invention is extracellularly released; endogenous in cells; host or cells: Schwanniomyces occidentalis (ATCC26077 named) grown in lactose medium; the cell-free supernatant was concentrated by 30 kDa tangential filtration and dialysed
T1 sequence (P24133 other isoform, or with tags, fused parts or gaps with the stated changes): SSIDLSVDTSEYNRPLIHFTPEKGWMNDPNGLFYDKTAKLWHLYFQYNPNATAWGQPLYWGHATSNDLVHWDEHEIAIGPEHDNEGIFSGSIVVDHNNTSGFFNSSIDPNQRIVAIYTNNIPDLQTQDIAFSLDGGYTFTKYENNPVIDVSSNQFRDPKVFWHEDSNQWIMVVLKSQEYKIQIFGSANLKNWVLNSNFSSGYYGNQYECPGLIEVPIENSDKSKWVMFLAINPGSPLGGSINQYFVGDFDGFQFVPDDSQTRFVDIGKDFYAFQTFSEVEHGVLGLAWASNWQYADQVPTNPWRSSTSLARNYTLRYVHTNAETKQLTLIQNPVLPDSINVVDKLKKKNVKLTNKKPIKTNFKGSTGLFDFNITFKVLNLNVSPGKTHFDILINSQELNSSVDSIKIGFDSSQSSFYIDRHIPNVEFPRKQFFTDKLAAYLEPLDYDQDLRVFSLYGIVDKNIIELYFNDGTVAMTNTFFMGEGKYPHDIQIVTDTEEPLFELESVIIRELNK
Experimental: (§1) The cell free fraction was obtained by centrifugation (F-0) of a culture of S. occidentalis ATCC26077 grown at 29° C. and 235 rpm. Fructofuranosidase activity was assayed in the latter, determining the glucose release on different substrates. A colorimetric assay and the standard methodology were used. The released glucose was quantified using the glucose oxidase-peroxidase coupled reaction: 0.4 ml of the solution to be determined was mixed with 0.1 ml of A:B (20:1) solution (A: 0.85 U/ml glucose oxidase, 0.40 U/ml peroxidase in sodium phosphate buffer pH 5; B: 0.6% O-dianisidine). It was incubated for 30 minutes at 37° C. and spectrophotometrically quantified at 450 nm. A standard glucose curve (0 to 100 μg/ml) was used. The fructofuranosidase activity unit is defined in μmol/ml min of glucose determined in the described conditions.
The cell free fraction, obtained by centrifugation, of a culture of S. occidentalis grown in lactose medium: 0.3% (w/v) YNB (yeast nitrogen base w/o amino acids, DIFCO), 3.5% (w/v) bactopeptone (DIFCO), 0.5% (w/v) KH2 PO4, 1% (w/v) MgSO4.7H2O, 1% (w/v) (NH4)SO4, and 2% lactose as a carbon source (R. D. Klein et al., “Purification and characterization of invertase from to novel industrial yeast, Schwanniomyces occidentalis”, Prep. Biochem, 1989, vol 19, pp. 293-319), grown until an optical density of 8.34 OD 660 nm, was concentrated using a tangential filtration system (30 kDa filter) followed by dialysis against 20 mM HCl-Tris pH 7 for 2 hours at a temperature of 4° C. and was assayed on different substrates.

[2] = target: T2, Fructofuranosidase activity of the F-3 fraction of S. occidentalis (Schwanniomyces occidentalis, UniProt P24133); assay: Fructofuranosidase (hydrolytic) activity of the purified enzyme F-3 on different substrates; type: biochemical; settings: for Hydrolytic activity on substrate (in words): purified enzyme F-3; for Activity specific: purified protein F-3, 1% substrate
T2 construct: the enzyme object of the invention is extracellularly released; endogenous in cells; host or cells: Schwanniomyces occidentalis culture supernatant; concentrated (F-1), then DEAE-Sephacel at pH 7 (F-2) and at pH 5 (F-3)
T2 sequence (P24133 other isoform, or with tags, fused parts or gaps with the stated changes): as above
Experimental: as §1
The hydrolytic activity of the purified enzyme (F-3), following the described method, was assayed on different substrates. The maximum activity level is obtained on sucrose. Activity on lactose, leucrose, turanose or palatinose was not observed.

Compound | Fructofuranosidase activity on substrate (in words) [1] | Hydrolytic activity on substrate (in words) [2] | Specific activity [1] [mU/μg] | Activity specific [2] [mU/μg]
OC[C@H]1O[C@@H](O[C@H]2[C@H](O)[C@@H](O)C(O)O[C@@H]2CO)[C@H](O)[C@@H](O)[C@H]1O (stereo partly drawn) [lactose] | No activity was detected | not observed |  | 
OC[C@H]1O[C@H](O[C@@H]2COC(O)(CO)[C@@H](O)[C@@H]2O)[C@H](O)[C@@H](O)[C@@H]1O (stereo partly drawn) [leucrose] | No activity was detected | not observed |  | 
OC[C@H]1O[C@@](CO)(OC[C@@]2(OC[C@@]3(O[C@H]4O[C@H](CO)[C@@H](O)[C@H](O)[C@H]4O)O[C@H](CO)[C@@H](O)[C@@H]3O)O[C@H](CO)[C@@H](O)[C@@H]2O)[C@@H](O)[C@@H]1O [nystose] |  |  | 0.6 | 6.2
OC[C@H]1O[C@H](OC[C@H]2OC(O)(CO)[C@@H](O)[C@@H]2O)[C@H](O)[C@@H](O)[C@@H]1O (stereo partly drawn) [palatinose] | No activity was detected | not observed |  | 
OC[C@H]1O[C@H](OC[C@H]2O[C@H](O[C@]3(CO)O[C@H](CO)[C@@H](O)[C@@H]3O)[C@H](O)[C@@H](O)[C@@H]2O)[C@H](O)[C@@H](O)[C@H]1O [raffinose] |  |  | 0.2 | 7.5
O=C(CO)[C@@H](O[C@H]1O[C@H](CO)[C@@H](O)[C@H](O)[C@H]1O)[C@H](O)[C@H](O)CO [turanose] | No activity was detected | not observed |  | 
